# Reference: US10815230B2, “Casein kinase 1 delta inhibitor” (ELECTROPHORETICS LIMITED, priority 2015, dated 2020)
# Like-named read-outs stand apart in the source and are kept apart here.
# What was measured:
# [1] = target: EPHA5 (Homo sapiens, UniProt P54756); experiment: KINOMEscan binding assay; conditions: read-out: % Ctrl @ 10000 nM
# [2] = target: ABL1 (T315I) phosphorylated (Homo sapiens, UniProt P00519, T315I); experiment: KINOMEscan binding assay; conditions: read-out: % Ctrl @ 10000 nM
# [3] = target: PAK3 (Homo sapiens, UniProt O75914); experiment: KINOMEscan binding assay; conditions: read-out: % Ctrl @ 10000 nM
# [4] = Pharmacokinetics in male CD-1 mice; type: in vivo; conditions: for AUCex: percent of AUC0-inf that is extrapolated; for AUC(0-t): male, CD-1, mouse; for AUC(0-t) / bioavailability / Cmax / Tmax / half-life / AUC(0-inf) / clearance / Vd / CL/F / Vd/F: plasma; for bioavailability / Cmax / Tmax / half-life / AUC(0-inf) / clearance / Vd / CL/F / Vd/F: mouse; for bioavailability: read-out: F (oral bioavailability); for AUC(0-inf) / clearance / Vd / CL/F / Vd/F: predicted; for Vd: read-out: Vz; for Vd/F: read-out: Vz/F
# Method: Six groups of male CD-1 mice of approximately 25-35 g (about 8 weeks of age) were dosed with Comparative compound 324 and Compound A intravenously (IV) (in 10% DMSO:90% Hydroxypropyl-β-cyclodextrin (20% aq. w/v)) or orally (PO) (in 0.5% w/v methylcelluose (aq.) according to the regimen shown in Table 6.
# Intravenous doses was administered into a tail vein at a constant dose volume of 5 mL/kg to achieve a dose level of 3 mg/kg. Oral doses were administered as a single bolus dose via syringe with attached polypropylene gavage tube at a constant dose volume of 10 mL/kg to achieve dose levels of 3 mg/kg (groups 2 and 4) and 30 mg/kg (group 3 and 6).
# Following dosing, blood samples were collected into individual K3EDTA tubes by cardiac puncture under terminal anaesthesia (isoflurane) from 3 animals per timepoint. Following collection animal were sacrificed by cervical dislocation. Samples were taken at 5, 15 and 30 minutes and then 1, 2, 4, 8 and 24 hours post-IV dose and 15 and 30 minutes and then 1, 2, 4, 8 and 24 hours post-OP dose.
# Upon collection, blood samples were centrifuged at 10,000×g, 2 minutes at 4° C. and the resultant plasma was drawn off and stored at −20° C. for analysis by LC-MS/MS of the concentration of the compounds. The remaining blood call pellet was discarded.
# Pharmacokinetic parameters were derived by non-compartmental analysis (linear/logarithmic trapezoidal) using WinNonlin (Version 4.1 or higher) software.
# [5] = target: MET (M1250T) (Homo sapiens, UniProt P08581, M1250T); experiment: KINOMEscan binding assay; conditions: read-out: % Ctrl @ 10000 nM
# [6] = target: T1, MAP4K4 (Homo sapiens, UniProt O95819); experiment: KINOMEscan binding assay; conditions: read-out: % Ctrl @ 10000 nM
# T1 construct: T7 phage fusion (most assays) or DNA label after HEK293 expression; purchased DiscoveRx (KINOMEscan, LeadHunter Discovery services); host or cells: T7 phage in E. coli (BL21-derived) or HEK293
# [7] = target: KIT (D816V) (Homo sapiens, UniProt P10721, D816V); experiment: KINOMEscan binding assay; conditions: read-out: % Ctrl @ 10000 nM
# [8] = target: ABL1 phosphorylated (Homo sapiens, UniProt P00519); experiment: KINOMEscan binding assay; conditions: read-out: % Ctrl @ 10000 nM
# [9] = target: PLK4 (Homo sapiens, UniProt O00444); experiment: KINOMEscan binding assay; conditions: read-out: % Ctrl @ 10000 nM
# [10] = target: ICK (Homo sapiens, UniProt Q9UPZ9); experiment: KINOMEscan binding assay; conditions: read-out: % Ctrl @ 10000 nM
# [11] = target: T2, MAP4K2 (Homo sapiens, UniProt Q12851); experiment: KINOMEscan binding assay; conditions: read-out: % Ctrl @ 10000 nM
# T2 construct: T7 phage fusion (most assays) or DNA label after HEK293 expression; purchased DiscoveRx (KINOMEscan, LeadHunter Discovery services); host or cells: T7 phage in E. coli (BL21-derived) or HEK293
# [12] = target: BMPR1B (Homo sapiens, UniProt O00238); experiment: KINOMEscan binding assay; conditions: read-out: % Ctrl @ 10000 nM
# [13] = target: NLK (Homo sapiens, UniProt Q9UBE8); experiment: KINOMEscan binding assay; conditions: read-out: % Ctrl @ 10000 nM
# [14] = target: ABL1 (Q252H) non-phosphorylated (Homo sapiens, UniProt P00519, Q252H); experiment: KINOMEscan binding assay; conditions: read-out: % Ctrl @ 10000 nM
# [15] = target: CAMK1 (Homo sapiens, UniProt Q14012); experiment: KINOMEscan binding assay; conditions: read-out: % Ctrl @ 10000 nM
# [16] = target: MET (Homo sapiens, UniProt P08581); experiment: KINOMEscan binding assay; conditions: read-out: % Ctrl @ 10000 nM
# [17] = target: MAP3K2 (Homo sapiens, UniProt Q9Y2U5); experiment: KINOMEscan binding assay; conditions: read-out: % Ctrl @ 10000 nM
# [18] = target: OSR1 (Homo sapiens, UniProt O95747); experiment: KINOMEscan binding assay; conditions: read-out: % Ctrl @ 10000 nM
# [19] = target: ERK8 (Homo sapiens, UniProt Q8TD08); experiment: KINOMEscan binding assay; conditions: read-out: % Ctrl @ 10000 nM
# [20] = target: PRKCH (Homo sapiens, UniProt P24723); experiment: KINOMEscan binding assay; conditions: read-out: % Ctrl @ 10000 nM
# [21] = target: JNK1 (Homo sapiens, UniProt P45983); experiment: KINOMEscan binding assay; conditions: read-out: % Ctrl @ 10000 nM
# [22] = target: CSNK1G2 (Homo sapiens, UniProt P78368); experiment: KINOMEscan binding assay; conditions: read-out: % Ctrl @ 10000 nM
# [23] = target: FGFR3 (Homo sapiens, UniProt P22607); experiment: KINOMEscan binding assay; conditions: read-out: % Ctrl @ 10000 nM
# [24] = target: IRAK4 (Homo sapiens, UniProt Q9NWZ3); experiment: KINOMEscan binding assay; conditions: read-out: % Ctrl @ 10000 nM
# [25] = target: CIT (Homo sapiens, UniProt O14578); experiment: KINOMEscan binding assay; conditions: read-out: % Ctrl @ 10000 nM
# [26] = target: MYLK (Homo sapiens, UniProt Q15746); experiment: KINOMEscan binding assay; conditions: read-out: % Ctrl @ 10000 nM
# [27] = target: CSNK1G1 (Homo sapiens, UniProt Q9HCP0); experiment: KINOMEscan binding assay; conditions: read-out: % Ctrl @ 10000 nM
# [28] = target: DYRK2 (Homo sapiens, UniProt Q92630); experiment: KINOMEscan binding assay; conditions: read-out: % Ctrl @ 10000 nM
# [29] = iv, 3 mg/kg, IV 3 mg/kg, male CD-1 mice, read-out: AUC0-24 h
# [30] = iv, 3 mg/kg, IV 3 mg/kg, male CD-1 mice, read-out: AUC0-t
# [31] = po, 3 mg/kg, PO 3 mg/kg, male CD-1 mice, read-out: AUC0-24 h
# [32] = po, 3 mg/kg, PO 3 mg/kg, male CD-1 mice, read-out: AUC0-t
# [33] = po, 30 mg/kg, PO 30 mg/kg, male CD-1 mice, read-out: AUC0-24 h
# [34] = po, 30 mg/kg, PO 30 mg/kg, male CD-1 mice, read-out: AUC0-t
# PLK4, sequence (O00444 whole entry): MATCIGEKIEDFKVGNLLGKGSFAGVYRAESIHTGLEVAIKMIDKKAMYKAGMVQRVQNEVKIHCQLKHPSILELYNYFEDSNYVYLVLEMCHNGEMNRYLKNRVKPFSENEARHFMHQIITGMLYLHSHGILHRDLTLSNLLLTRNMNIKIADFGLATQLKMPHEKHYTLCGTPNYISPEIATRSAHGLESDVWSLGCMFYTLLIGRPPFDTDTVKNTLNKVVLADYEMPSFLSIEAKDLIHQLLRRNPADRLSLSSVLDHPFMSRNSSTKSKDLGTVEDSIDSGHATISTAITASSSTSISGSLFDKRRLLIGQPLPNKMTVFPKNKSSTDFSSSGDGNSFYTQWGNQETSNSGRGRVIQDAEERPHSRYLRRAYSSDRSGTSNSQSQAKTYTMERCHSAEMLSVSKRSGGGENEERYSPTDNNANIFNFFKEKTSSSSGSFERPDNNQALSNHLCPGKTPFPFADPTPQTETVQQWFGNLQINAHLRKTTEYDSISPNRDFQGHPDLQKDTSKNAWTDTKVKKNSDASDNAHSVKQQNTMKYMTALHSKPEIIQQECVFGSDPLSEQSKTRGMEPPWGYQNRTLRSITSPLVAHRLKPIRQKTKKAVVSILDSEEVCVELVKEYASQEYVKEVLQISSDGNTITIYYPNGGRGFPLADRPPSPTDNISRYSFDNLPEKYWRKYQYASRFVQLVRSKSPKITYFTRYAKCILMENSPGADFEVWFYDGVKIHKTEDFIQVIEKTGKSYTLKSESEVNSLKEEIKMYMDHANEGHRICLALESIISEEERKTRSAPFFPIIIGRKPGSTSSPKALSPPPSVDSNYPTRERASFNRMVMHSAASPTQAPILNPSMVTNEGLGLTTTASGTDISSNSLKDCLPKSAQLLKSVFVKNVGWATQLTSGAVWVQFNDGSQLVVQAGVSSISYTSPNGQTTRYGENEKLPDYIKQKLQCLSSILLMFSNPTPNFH
# ERK8, sequence (Q8TD08 whole entry): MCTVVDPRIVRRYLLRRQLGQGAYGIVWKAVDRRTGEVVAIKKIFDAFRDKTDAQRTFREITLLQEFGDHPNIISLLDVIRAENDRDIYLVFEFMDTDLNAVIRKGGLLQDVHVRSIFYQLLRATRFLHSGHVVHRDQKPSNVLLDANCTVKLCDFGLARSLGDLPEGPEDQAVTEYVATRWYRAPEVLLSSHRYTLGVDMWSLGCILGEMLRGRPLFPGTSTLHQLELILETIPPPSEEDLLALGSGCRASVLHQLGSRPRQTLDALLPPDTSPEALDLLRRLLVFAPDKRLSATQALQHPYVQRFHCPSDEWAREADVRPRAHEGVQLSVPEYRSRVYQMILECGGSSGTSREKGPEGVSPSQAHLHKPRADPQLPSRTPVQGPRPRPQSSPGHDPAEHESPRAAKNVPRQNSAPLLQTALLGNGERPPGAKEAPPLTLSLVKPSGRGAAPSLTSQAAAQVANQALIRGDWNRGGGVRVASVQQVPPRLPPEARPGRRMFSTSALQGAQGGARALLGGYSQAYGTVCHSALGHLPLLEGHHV
# IRAK4, sequence (Q9NWZ3 whole entry): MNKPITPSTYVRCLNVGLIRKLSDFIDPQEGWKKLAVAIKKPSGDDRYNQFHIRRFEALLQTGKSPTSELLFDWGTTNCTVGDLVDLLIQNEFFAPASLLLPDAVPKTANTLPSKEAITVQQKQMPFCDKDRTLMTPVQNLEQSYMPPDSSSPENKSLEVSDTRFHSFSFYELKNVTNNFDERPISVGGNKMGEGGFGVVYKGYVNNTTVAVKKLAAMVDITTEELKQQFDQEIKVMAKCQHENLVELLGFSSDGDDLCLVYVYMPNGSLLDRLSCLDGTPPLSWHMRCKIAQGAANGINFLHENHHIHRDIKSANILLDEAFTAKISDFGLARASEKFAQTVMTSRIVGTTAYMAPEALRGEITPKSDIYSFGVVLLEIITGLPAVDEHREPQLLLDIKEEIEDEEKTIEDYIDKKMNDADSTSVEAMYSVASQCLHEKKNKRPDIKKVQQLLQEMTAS
# MYLK, sequence (Q15746 whole entry): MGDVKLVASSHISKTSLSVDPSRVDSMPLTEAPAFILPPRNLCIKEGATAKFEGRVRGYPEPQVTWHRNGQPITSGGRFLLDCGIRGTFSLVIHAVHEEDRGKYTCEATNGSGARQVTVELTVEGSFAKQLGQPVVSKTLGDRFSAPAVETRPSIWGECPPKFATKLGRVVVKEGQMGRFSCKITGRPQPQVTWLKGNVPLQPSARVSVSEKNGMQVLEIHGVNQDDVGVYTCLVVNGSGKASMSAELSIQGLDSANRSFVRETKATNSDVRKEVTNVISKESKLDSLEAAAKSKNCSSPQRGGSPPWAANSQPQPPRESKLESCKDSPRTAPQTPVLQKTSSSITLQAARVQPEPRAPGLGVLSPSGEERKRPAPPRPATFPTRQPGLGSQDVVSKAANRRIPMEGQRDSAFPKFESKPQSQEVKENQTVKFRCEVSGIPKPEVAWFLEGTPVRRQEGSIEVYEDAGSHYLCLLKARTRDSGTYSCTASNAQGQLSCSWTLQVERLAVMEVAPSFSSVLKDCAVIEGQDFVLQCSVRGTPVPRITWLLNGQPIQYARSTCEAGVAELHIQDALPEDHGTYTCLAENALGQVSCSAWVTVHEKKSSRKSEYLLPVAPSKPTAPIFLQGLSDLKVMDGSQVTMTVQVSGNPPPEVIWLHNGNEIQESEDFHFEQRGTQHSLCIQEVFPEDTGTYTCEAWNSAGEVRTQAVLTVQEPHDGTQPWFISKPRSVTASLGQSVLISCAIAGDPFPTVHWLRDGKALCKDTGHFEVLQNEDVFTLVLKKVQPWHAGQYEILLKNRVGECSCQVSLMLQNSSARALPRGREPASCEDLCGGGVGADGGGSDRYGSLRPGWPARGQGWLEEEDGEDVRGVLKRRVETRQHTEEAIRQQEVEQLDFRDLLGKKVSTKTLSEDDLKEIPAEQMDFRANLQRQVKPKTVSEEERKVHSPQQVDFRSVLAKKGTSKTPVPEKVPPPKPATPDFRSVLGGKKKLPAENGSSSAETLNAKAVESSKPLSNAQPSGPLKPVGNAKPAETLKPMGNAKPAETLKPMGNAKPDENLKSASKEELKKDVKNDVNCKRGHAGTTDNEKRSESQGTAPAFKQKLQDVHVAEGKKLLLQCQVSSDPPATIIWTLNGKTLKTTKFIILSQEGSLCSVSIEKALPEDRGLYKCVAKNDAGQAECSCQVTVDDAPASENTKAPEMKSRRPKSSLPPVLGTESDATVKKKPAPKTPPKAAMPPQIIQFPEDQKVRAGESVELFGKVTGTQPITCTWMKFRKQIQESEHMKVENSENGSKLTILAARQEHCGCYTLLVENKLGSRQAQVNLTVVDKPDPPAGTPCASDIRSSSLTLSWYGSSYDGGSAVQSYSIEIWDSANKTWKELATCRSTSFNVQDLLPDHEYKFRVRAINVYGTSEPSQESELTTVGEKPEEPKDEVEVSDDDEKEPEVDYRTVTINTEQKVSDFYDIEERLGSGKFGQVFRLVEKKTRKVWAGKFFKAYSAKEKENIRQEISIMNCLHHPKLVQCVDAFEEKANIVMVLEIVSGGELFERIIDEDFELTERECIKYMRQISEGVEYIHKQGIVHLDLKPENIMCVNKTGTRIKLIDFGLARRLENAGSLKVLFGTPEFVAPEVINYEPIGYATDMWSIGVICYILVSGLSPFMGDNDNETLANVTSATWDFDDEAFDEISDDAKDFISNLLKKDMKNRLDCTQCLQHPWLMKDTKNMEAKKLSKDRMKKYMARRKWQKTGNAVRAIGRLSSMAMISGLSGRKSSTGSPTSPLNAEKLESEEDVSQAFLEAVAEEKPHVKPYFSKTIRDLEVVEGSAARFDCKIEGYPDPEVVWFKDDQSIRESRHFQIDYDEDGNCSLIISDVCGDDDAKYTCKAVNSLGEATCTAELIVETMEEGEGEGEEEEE
# EPHA5, sequence (P54756 25-1037): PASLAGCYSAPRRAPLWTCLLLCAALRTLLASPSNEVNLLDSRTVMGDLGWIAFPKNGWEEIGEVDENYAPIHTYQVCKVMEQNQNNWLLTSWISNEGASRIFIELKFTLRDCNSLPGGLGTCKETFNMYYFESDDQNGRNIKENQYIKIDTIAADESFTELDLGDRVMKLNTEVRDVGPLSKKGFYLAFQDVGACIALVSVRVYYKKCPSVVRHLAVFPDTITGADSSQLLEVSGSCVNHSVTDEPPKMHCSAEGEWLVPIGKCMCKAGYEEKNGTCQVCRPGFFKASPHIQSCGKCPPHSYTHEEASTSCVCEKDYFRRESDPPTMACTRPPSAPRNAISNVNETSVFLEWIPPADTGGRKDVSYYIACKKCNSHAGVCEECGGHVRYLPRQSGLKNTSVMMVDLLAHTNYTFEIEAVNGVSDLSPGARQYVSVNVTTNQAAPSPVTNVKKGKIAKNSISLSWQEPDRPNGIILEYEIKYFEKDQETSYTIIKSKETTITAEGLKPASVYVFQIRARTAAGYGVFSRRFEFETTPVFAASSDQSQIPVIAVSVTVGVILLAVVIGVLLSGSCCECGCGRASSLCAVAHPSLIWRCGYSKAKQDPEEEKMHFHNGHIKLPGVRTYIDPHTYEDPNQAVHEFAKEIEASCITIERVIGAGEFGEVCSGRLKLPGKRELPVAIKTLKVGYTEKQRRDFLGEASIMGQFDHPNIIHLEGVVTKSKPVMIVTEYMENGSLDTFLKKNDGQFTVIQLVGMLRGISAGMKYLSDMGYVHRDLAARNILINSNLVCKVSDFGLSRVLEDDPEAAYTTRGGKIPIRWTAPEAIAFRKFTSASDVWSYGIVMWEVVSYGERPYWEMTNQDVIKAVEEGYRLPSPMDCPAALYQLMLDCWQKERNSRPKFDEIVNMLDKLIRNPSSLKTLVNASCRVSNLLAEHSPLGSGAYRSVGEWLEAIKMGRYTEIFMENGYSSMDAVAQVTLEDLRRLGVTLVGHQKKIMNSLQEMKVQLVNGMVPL
smiles,measurement,setting,value
"Nc1ncc(-c2nc3ccccc3o2)c(-c2ccncc2)n1 [Comparative Compound 324, 5-(1,3-benzoxazol-2-yl)-4-(pyridine-4-yl)pyrimidin-2-amine]",remaining binding at 10 µM,[1],100%
same,remaining binding at 10 µM,[2],85%
same,remaining binding at 10 µM,[3],95%
same,AUCex,[4]; IV 3 mg/kg,1.9%
same,AUC(0-t),[4]; [29],315 ng·h/mL
same,AUC(0-t),[4]; [30],304 ng·h/mL
same,AUC(0-t),[4]; [31],11.1 ng·h/mL
same,AUC(0-t),[4]; [32],8.66 ng·h/mL
same,AUC(0-t),[4]; [33],1590 ng·h/mL
same,AUC(0-t),[4]; [34],1210 ng·h/mL
same,bioavailability,"[4]; PO 3 mg/kg, male CD-1 mice",3%
same,bioavailability,"[4]; PO 30 mg/kg, male CD-1 mice",40%
same,Cmax,"[4]; IV 3 mg/kg, male CD-1 mice",1150 ng/mL
same,Tmax,"[4]; IV 3 mg/kg, male CD-1 mice",4.98 min
same,half-life,"[4]; IV 3 mg/kg, male CD-1 mice",5.46 min
same,AUC(0-inf),"[4]; IV 3 mg/kg, male CD-1 mice",309 ng·h/mL
same,clearance,"[4]; IV 3 mg/kg, male CD-1 mice",162 mL/min/kg
same,Vd,"[4]; IV 3 mg/kg, male CD-1 mice",1.27 L/kg
same,Cmax,"[4]; PO 3 mg/kg, male CD-1 mice",14 ng/mL
same,Tmax,"[4]; PO 3 mg/kg, male CD-1 mice",15 min
same,Cmax,"[4]; PO 30 mg/kg, male CD-1 mice",666 ng/mL
same,Tmax,"[4]; PO 30 mg/kg, male CD-1 mice",30 min
same,remaining binding at 10 µM,[5],97%
same,remaining binding at 10 µM,[6],97%
same,remaining binding at 10 µM,[7],91%
same,remaining binding at 10 µM,[8],98%
same,remaining binding at 10 µM,[9],69%
same,remaining binding at 10 µM,[10],99%
same,remaining binding at 10 µM,[11],100%
same,remaining binding at 10 µM,[12],80%
same,remaining binding at 10 µM,[13],41%
same,remaining binding at 10 µM,[14],31%
same,remaining binding at 10 µM,[15],100%
same,remaining binding at 10 µM,[16],91%
same,remaining binding at 10 µM,[17],87%
same,remaining binding at 10 µM,[18],100%
same,remaining binding at 10 µM,[19],99%
same,remaining binding at 10 µM,[20],99%
same,remaining binding at 10 µM,[21],52%
same,remaining binding at 10 µM,[22],72%
same,remaining binding at 10 µM,[23],95%
same,remaining binding at 10 µM,[24],100%
same,remaining binding at 10 µM,[25],73%
same,remaining binding at 10 µM,[26],86%
same,remaining binding at 10 µM,[27],93%
same,remaining binding at 10 µM,[28],82%
"CNc1c(C(N)=O)c2ccccn2c1C(=O)c1ccc(F)cc1 [Compound A, 2-methyl-amino-3-[(4-fluorophenyl)carbonyl]indolizine-1-carboxamide]",remaining binding at 10 µM,[1],70%
same,remaining binding at 10 µM,[2],100%
same,remaining binding at 10 µM,[3],75%
same,AUCex,[4]; IV 3 mg/kg,0.1%
same,AUCex,[4]; PO 3 mg/kg,6.3%
same,AUCex,[4]; PO 30 mg/kg,18.5%
same,clearance after administration,"[4]; male CD-1 mice, 24 hours after administration",completely cleared after 24 hours
same,AUC(0-t),[4]; [29],502 ng·h/mL
same,AUC(0-t),[4]; [30],498 ng·h/mL
same,AUC(0-t),[4]; [31],35.4 ng·h/mL
same,AUC(0-t),[4]; [32],32.4 ng·h/mL
same,AUC(0-t),[4]; [33],659 ng·h/mL
same,AUC(0-t),[4]; [34],470 ng·h/mL
same,bioavailability,"[4]; PO 3 mg/kg, male CD-1 mice",7%
same,bioavailability,"[4]; PO 30 mg/kg, male CD-1 mice",9%
same,Cmax,"[4]; IV 3 mg/kg, male CD-1 mice",1680 ng/mL
same,Tmax,"[4]; IV 3 mg/kg, male CD-1 mice",4.98 min
same,half-life,"[4]; IV 3 mg/kg, male CD-1 mice",13.8 min
same,AUC(0-inf),"[4]; IV 3 mg/kg, male CD-1 mice",499 ng·h/mL
same,clearance,"[4]; IV 3 mg/kg, male CD-1 mice",100 mL/min/kg
same,Vd,"[4]; IV 3 mg/kg, male CD-1 mice",2 L/kg
same,Cmax,"[4]; PO 3 mg/kg, male CD-1 mice",47 ng/mL
same,Tmax,"[4]; PO 3 mg/kg, male CD-1 mice",15 min
same,half-life,"[4]; PO 3 mg/kg, male CD-1 mice",29.4 min
same,AUC(0-inf),"[4]; PO 3 mg/kg, male CD-1 mice",34.6 ng·h/mL
same,CL/F,"[4]; PO 3 mg/kg, male CD-1 mice",1450 mL/min/kg
same,Vd/F,"[4]; PO 3 mg/kg, male CD-1 mice",61.4 L/kg
same,Cmax,"[4]; PO 30 mg/kg, male CD-1 mice",237 ng/mL
same,Tmax,"[4]; PO 30 mg/kg, male CD-1 mice",30 min
same,half-life,"[4]; PO 30 mg/kg, male CD-1 mice",210 min
same,AUC(0-inf),"[4]; PO 30 mg/kg, male CD-1 mice",576 ng·h/mL
same,CL/F,"[4]; PO 30 mg/kg, male CD-1 mice",868 mL/min/kg
same,Vd/F,"[4]; PO 30 mg/kg, male CD-1 mice",264 L/kg
same,remaining binding at 10 µM,[5],83%
same,remaining binding at 10 µM,[6],86%
same,remaining binding at 10 µM,[7],71%
same,remaining binding at 10 µM,[8],51%
same,remaining binding at 10 µM,[9],70%
same,remaining binding at 10 µM,[10],93%
same,remaining binding at 10 µM,[11],100%
same,remaining binding at 10 µM,[12],81%
same,remaining binding at 10 µM,[13],35%
same,remaining binding at 10 µM,[14],11%
same,remaining binding at 10 µM,[15],100%
same,remaining binding at 10 µM,[16],100%
same,remaining binding at 10 µM,[17],73%
same,remaining binding at 10 µM,[18],99%
same,remaining binding at 10 µM,[19],98%
same,remaining binding at 10 µM,[20],95%
same,remaining binding at 10 µM,[21],45%
same,remaining binding at 10 µM,[22],99%
same,remaining binding at 10 µM,[23],90%
same,remaining binding at 10 µM,[24],98%
same,remaining binding at 10 µM,[25],58%
same,remaining binding at 10 µM,[26],71%
same,remaining binding at 10 µM,[27],88%
same,remaining binding at 10 µM,[28],83%
